Laboratory results taken from patent publication US20240343733A1, “COMPOUNDS FOR TARGETING DEGRADATION OF IRAK4 PROTEINS” (BIOGEN MA INC., priority 2021, published 2024).
Read-outs that look alike come from different tables or passages of the source.

Experiment: Pharmacokinetics in Male Cynomolgus Monkeys
Assay type: in vivo
Details: cynomolgus monkey, plasma; for Vd: read-out: Vdss
Method: Assay 5. Pharmacokinetics in Male Cynomolgus Monkeys
The pharmacokinetic (PK) profile in plasma of two compounds of the present invention was determined in male cynomolgus monkeys following single dose IV (5 mg/kg) and PO (10 mg/kg) administration. This study was performed under non-GLP conditions, and unless otherwise stated, all analytical reagents were standard laboratory reagent grade. The study was conducted in accordance with IACUC guidelines in compliance with the Animal Welfare Act, the Guide for the Care and Use of Laboratory Animals.
Male cynomolgus monkeys, non-naïve, are acceptable species to support PK studies for compounds intended for use in humans. The animals were supplied by Hainan Jingang Laboratory Animal Co. Ltd (Nayangxintan Fucheng Town, Qiongshan District, Haikou Hainan Province, P.R. China) or another qualified source. During in-life, the animals were individually housed in stainless-steel mesh cages that are in accordance with the National Research Council “Guide for the Care and Use of Laboratory Animals”. Animals were fed twice daily with approximately 120 g of certified monkey diet. These amounts were adjusted as necessary based on food consumption of the group or an individual body weight changes of the group or an individual and/or changes in the certified diet. In addition, animals received fruit daily as nutritional enrichment and reverse osmosis (RO) water was available to all animals, ad libitum. RO water was analyzed every three months and every batch of feed was analyzed before using. Feed and water analyses records were maintained in the facility records. The room(s) were controlled and monitored for relative humidity range of 40-70% (any excursion from this range for more than 3 hours was documented as a deviation) and temperature range of 18-26° C. (any excursion from this range was documented as a deviation) with 10 to 20 air changes/hour. The room was on a 12-hour light/dark cycle except when interruptions were necessitated by study activities. Normal healthy animals weighing >2 kg and age ≥2 years old were selected for studies. The monkeys were identified by a unique skin tattoo on chest.
2-[4-[[4-[1-(2,6-dioxo-3-piperidyl)-3-methyl-2-oxo-benzimidazol-5-yl]-1-piperidyl]methyl]cyclohexyl]-7-isopropoxy-N-pyrazolo[1,5-a]pyrimidin-3-yl-imidazo[1,2-a]pyridine-6-carboxamide, as described in Example 48 (“Compound 48”), and 2-((1R,4S)-4-((4-(1-(2,6-dioxopiperidin-3-yl)-3-methyl-2-oxo-2,3-dihydro-1H-benzo[d]imidazol-5-yl)piperidin-1-yl)methyl)cyclohexyl)-N-(1-((1S,2R)-2-fluorocyclopropyl)-2-oxo-1,2-dihydropyridin-3-yl)-7-isopropoxyimidazo[1,2-a]pyridine-6-carboxamide, as described in Example 169 (“Compound 169”), were each formulated by dissolving the compound in polyethylene glycol (PEG400) (10%) with stirring, followed by the slow addition of 11.11% 2-Hydroxypropyl-beta-cyclodextrin (HPβCD) (90%) in water. Vehicle dose was PEG400 (10%) and 11.11% HP-β-CD (90%) in water. Formulations and vehicle were freshly prepared on of the day of dosing and stored at room temperature until used.
All animals were weighed prior to drug administration. The animals were divided into intravenous (IV) group and per os (PO) group for each compound tested, with 3 animals in each group. The vehicle dosing group included IV and PO groups, making a total of 6 groups of 3 animals each, for 18 animals total. The IV dose was administered by intravenous bolus injection into the cephalic or saphenous vein. The vein used for the dosing was not used for blood sample collection for the first 4 hours post dose. The PO dose was administered by nasogastric tube. The nasogastric PO doses were flushed using 3 mL of vehicle (approximately 3 times volume of nasogastric tube). […] The dosing volume was 2.5 mL/kg for the IV groups and 5 mL/kg for the PO groups. The dosing concentration was 2 mg/mL for both IV and PO groups. Feeding conditions were overnight fasting for PO group but not for IV group. […]

SMILES | AUC(0-t) (5 mg/kg IV, mean (Table 11)) [ng·h/mL] | C0 (5 mg/kg IV, mean (Table 11)) [ng/mL] | clearance (5 mg/kg IV, mean (Table 11)) [mL/min/kg] | half-life (5 mg/kg IV, mean (Table 11)) [h] | Vd (5 mg/kg IV, mean (Table 11)) [L/kg] | AUC(0-t) (10 mg/kg PO, mean (Table 12)) [ng·h/mL] | Cmax (10 mg/kg PO, mean (Table 12)) [ng/mL] | bioavailability (10 mg/kg PO, mean (Table 12)) [%] | AUC(0-t) (5 mg/kg IV, mean) [ng·h/mL] | C0 (5 mg/kg IV, mean) [ng/mL] | clearance (5 mg/kg IV, mean) [mL/min/kg] | half-life (5 mg/kg IV, mean) [h] | Vd (5 mg/kg IV, mean) [L/kg] | AUC(0-t) (10 mg/kg PO, mean) [ng·h/mL] | Cmax (10 mg/kg PO, mean) [ng/mL] | bioavailability (10 mg/kg PO, mean) [%]
CC(C)Oc1cc2nc([C@H]3CC[C@H](CN4CCC(c5ccc6c(c5)n(C)c(=O)n6C5CCC(=O)NC5=O)CC4)CC3)cn2cc1C(=O)Nc1cccn([C@H]2C[C@H]2F)c1=O (stereo partly drawn) [Compound 169, 2-((1R,4S)-4-((4-(1-(2,6-dioxopiperidin-3-yl)-3-methyl-2-oxo-2,3-dihydro-1H-benzo[d]imidazol-5-yl)piperidin-1-yl)methyl)cyclohexyl)-N-(1-((1S,2R)-2-fluorocyclopropyl)-2-oxo-1,2-dihydropyridin-3-yl)-7-isopropoxyimidazo[1,2-a]pyridine-6-carboxamide] | 4680 | 10300 | 17 | 44.3 | 32.6 | 1020 | 101 | 10.8 |  |  |  |  |  |  |  | 
CC(C)Oc1cc2nc([C@H]3CC[C@H](CN4CCC(c5ccc6c(c5)n(C)c(=O)n6C5CCC(=O)NC5=O)CC4)CC3)cn2cc1C(=O)Nc1cnn2cccnc12 (stereo partly shown) [Compound 48, 2-[4-[[4-[1-(2,6-dioxo-3-piperidyl)-3-methyl-2-oxo-benzimidazol-5-yl]-1-piperidyl]methyl]cyclohexyl]-7-isopropoxy-N-pyrazolo[1,5-a]pyrimidin-3-yl-imidazo[1,2-a]pyridine-6-carboxamide] |  |  |  |  |  |  |  |  | 1740 | 5970 | 48.6 | 44.2 | 70.3 | 84.3 | 18.3 | 2.42
